For the assay, the target named is T1, GSK3β (Homo sapiens, UniProt P49841).
T1 construct: purchased Upstate xy
The experiment in a line: GSK3β biochemical in vitro assay (fluorescence, NADH-coupled). To be noted: 5 nM GSK3β, 40 μM substrate GSM, 50 μM ATP, 30° C., 2 hours. The protocol: The inhibitory activity of active substances is determined in a biochemical assay. The ingredients required for this purpose are mixed in a black 384-well microtitre plate with transparent base (from Greiner, catalogue number 781092). The requirements in this connection for each well of the 384-well microtitre plate are 5 nM GSK3β (from Upstate, catalogue number xy), 40 μM GSK3B substrate GSM (sequence H-RRRPASVPPSPSLSRHS-(pS)-HQRR, from Upstate, catalogue number 2-533), 30 μM nicotinamide adenine dinucleotide NADH (Roche Diagnostics, catalogue number 10107735), 50 μM adenosine triphosphate ATP (from Sigma, catalogue number A7966), and 2 mM phosphoenolpyruvate (from Roche, catalogue number 128112). The required reaction buffer in which the biochemical reaction takes place consists of 50 mM Trizma hydrochloride tris-HCl pH: 7.5 (from Sigma, catalogue number T3253), 5 mM magnesium chloride MgCl2 (from Sigma, catalogue number M8266), 0.2 mM DL-dithiothreitol DTT (from Sigma, catalogue number D9779), 2 mM ethylenediaminethertetraacid EDTA (from Sigma, catalogue number E6758), 0.01% Triton X-100 (from Sigma, catalogue number T8787) and 0.05% bovine serum albumin BSA (from Sigma, catalogue number B4287).
Active substances are dissolved in dimethyl sulphoxide DMSO (from Sigma, catalogue number D8418) in a concentration of 10 mM. Active substances are added in serial concentrations of 10 μM, 1 μM, 0.1 μM, 0.01 μM, 0.001 μM, 0.0001 μM, 0.00001 μM, 0.000001 μM to the mixtures of the biochemical reaction. As control, dimethyl sulphoxide is added instead of substance in a final concentration of 0.1%.
The reaction is incubated at 30° C. for 2 hours and then the resulting fluorescence is measured in a Tecan Safire-XFLUOR4 instrument, version V4.50 (serial number 12901300283) with the specifications: measurement mode—fluorescence measured from below, extinction wavelength 340 nm, emission wavelength 465 nm, slit width extinction 5 nm, slit width emission 5 nm, gain mode 120, delay 0 μs, number of light flashes per measurement 3, and an integration time of 40 μs.
The activity of the active substances is calculated in relation to these 0% and 100%.

pIC50: −log10 of the molar value. Structures can show the parent of a compound that is named as a salt.

Results on 19 molecules are retold here after patent US8273752B2, “Substituted imidazopyrimidines and triazolopyrimidines” (Bayer Intellectual Property GmbH, priority 2007, dated 2012).

T1 sequence (P49841 whole entry, species assumed): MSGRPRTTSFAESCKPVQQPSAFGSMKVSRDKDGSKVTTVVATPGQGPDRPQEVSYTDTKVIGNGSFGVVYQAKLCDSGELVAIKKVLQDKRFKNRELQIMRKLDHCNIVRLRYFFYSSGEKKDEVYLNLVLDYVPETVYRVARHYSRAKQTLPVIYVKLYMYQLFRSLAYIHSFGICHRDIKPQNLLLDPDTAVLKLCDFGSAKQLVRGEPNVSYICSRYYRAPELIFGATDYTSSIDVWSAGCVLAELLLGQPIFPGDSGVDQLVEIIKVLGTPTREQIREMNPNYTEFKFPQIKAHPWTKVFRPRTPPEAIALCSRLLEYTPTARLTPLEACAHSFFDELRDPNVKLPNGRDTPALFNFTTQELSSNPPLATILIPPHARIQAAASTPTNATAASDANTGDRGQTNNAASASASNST

With `N#Cc1ccc(NC2CCCN(c3nc(-c4ccc(Cl)cc4Cl)cc4nccn34)C2)nc1` (single isomer, unassigned) [Ent. B 123, 6-({1-[7-(2,4-dichlorophenyl)imidazo[1,2-c]pyrimidin-5-yl]piperidin-3-yl}amino)pyridine-3-carbonitrile trifluoroacetate], the negative logarithm of the IC50 (pIC50) is 7.66. `N#Cc1ccc(NCCNc2nc(-c3ccc(Cl)cc3Cl)cc3nccn23)nc1` [Example 1, 6-[(2-{[7-(2,4-Dichlorophenyl)imidazo[1,2-c]pyrimidin-5-yl]amino}ethyl)amino]nicotinonitrile]: the pIC50 is 7.47. `Nc1nc(NCCNc2nc(-c3ccc(Cl)cc3Cl)cc3nccn23)ccc1[N+](=O)[O-]` [Example 4, N^6-(2-{[7-(2,4-Dichlorophenyl)imidazo[1,2-c]pyrimidin-5-yl]amino}ethyl)-3-nitropyridine-2,6-diamine] showed a pIC50 of 8.30. In turn, `N#Cc1sc(NCCNc2nc(-c3ccc(Cl)cc3Cl)cc3nccn23)nc1N` [Example 5, 4-Amino-2-[(2-{[7-(2,4-dichlorophenyl)imidazo[1,2-c]pyrimidin-5-yl]amino}ethyl)amino]-1,3-thiazole-5-carbonitrile] showed a negative logarithm of the IC50 (pIC50) of 7.82.

`O=[N+]([O-])c1ccc(NCCNc2nc(-c3ccc(Cl)cc3Cl)cc3nccn23)nc1` [Example 6, N-[7-(2,4-Dichlorophenyl)imidazo[1,2-c]pyrimidin-5-yl]-N′-(5-nitropyridin-2-yl)ethane-1,2-diamine] gave a pIC50 of 7.36. Regarding `N#Cc1ccc(NCCNc2nc(-c3ccc(C(F)(F)F)cc3)cc3nccn23)nc1` [Example 7, 6-{[2-({7-[4-(Trifluoromethyl)phenyl]imidazo[1,2-c]pyrimidin-5-yl}amino)ethyl]amino}-nicotinonitrile], the pIC50 was 6.74. Regarding `CC(C)(C)c1ccc(-c2cc3nccn3c(NCCNc3ccc(C#N)cn3)n2)cc1` [Example 8], the negative logarithm of the IC50 (pIC50) was 6.75. `Nc1nc(NCCNc2nc(-c3ccc(OC(F)(F)F)cc3)cc3nccn23)ccc1[N+](=O)[O-]` [Example 32] showed a pIC50 of 6.83. As for `Cc1cc(C)cc(-c2cc3nccn3c(NCCNc3ccc([N+](=O)[O-])c(N)n3)n2)c1` [Example 36], the figure is 7.82. As for `Cc1cccc(-c2cc3nccn3c(NCCNc3ccc([N+](=O)[O-])c(N)n3)n2)c1C` [Example 38], the figure is 7.64; as for `Cc1cc(F)ccc1-c1cc2nccn2c(NCCNc2ccc([N+](=O)[O-])c(N)n2)n1` [Example 39], 7.64. The molecule `Cc1cccc(-c2cc3nccn3c(NCCNc3ccc([N+](=O)[O-])c(N)n3)n2)c1` [Example 40] gave a pIC50 of 7.62. For `Nc1nc(NCCNc2nc(-c3ccc(F)c(Cl)c3)cc3nccn23)ccc1[N+](=O)[O-]` [Example 53], the negative logarithm of the IC50 (pIC50) is 7.09. `CCOc1ccc(-c2cc3nccn3c(NCCNc3ccc([N+](=O)[O-])c(N)n3)n2)cc1` [Example 56]: the negative logarithm of the IC50 (pIC50) was 7.04.

`Nc1nc(NCCNc2nc(-c3ccccc3)cc3nccn23)ccc1[N+](=O)[O-]` [Example 57]: the pIC50 was 7.03. `CC(C)Cn1cc(-c2cc3nccn3c(NCCNc3ccc([N+](=O)[O-])c(N)n3)n2)cn1` [Example 63] gave a negative-log IC50 (pIC50) of 6.76. For `CCCCc1ccc(-c2cc3nccn3c(NCCNc3ccc([N+](=O)[O-])c(N)n3)n2)cc1` [Example 65], the negative logarithm of the IC50 (pIC50) is 6.73. As for `Nc1nc(NCCNc2nc(-c3ccc(C(F)(F)F)cc3)cc3nccn23)ccc1[N+](=O)[O-]` [Example 66], the pIC50 was 6.71.

`Cc1cn2c(NCCNc3ccc([N+](=O)[O-])c(N)n3)nc(-c3ccc(Cl)cc3Cl)cc2n1` [Example 77, N^6-(2-{[7-(2,4-Dichlorophenyl)-2-methylimidazo[1,2-c]pyrimidin-5-yl]amino}ethyl)-3-nitropyridine-2,6-diamine] gave a negative logarithm of the IC50 (pIC50) of 7.77.

As usually defined, the pIC50 is the IC50 on a negative log10 scale, so that one unit is a factor of ten.
